Test results reported in US8846699B2, “Quinazoline derivatives as a multiplex inhibitor and method for the preparation thereof” (Hanmi Pharm. Co., Ltd., priority 2005, dated 2014).

Experiments:
EGFR1 (HER-1) = EGFR1 (HER-1) (Homo sapiens (Human), UniProt P00533); test: EGFR1 (HER-1) enzyme assay, fluorescence polarization; type: biochemical; settings: 100 μM ATP, poly(Glu, Tyr) substrate
[1] = tested on: Human Umbilical Vein Endothelial Cell (HUVEC); test: Inhibitory effect on growth of human umbilical vein endothelial cell (HUVEC), MTS; type: cell-based; settings: Homo sapiens, 96 h, 10 ng/ml VEGF, absorbance 490 nm
Procedure: HUVECs (Young Science, Inc) were suspended in a culture medium, EBM-2 (Endothelial Basic Media, Cambrex) supplemented with 2% bovine serum (Cambrex) and auxiliary additives for HUVEC culture (e.g., EGF, VEGF, FGF, etc., Cambrex), inoculated into a culture flask coated with 1% gelatin, and incubated in an incubator at 37° C. under 5% CO2 and 100% humidity.
100 μl of 5% bovine serum medium containing 10 ng/ml of vascular endothelial growth factor (VEGF) and auxiliary additives, while excluding other growth factors was added to each well of a 96-well plate. […] DMSO (Dimethylsulfoxide) was used to dissolve the test compounds, and the final concentration of DMSO was less than 1%.
100 μl of the diluted cell solution was added to each well of the 96-well plate, which was incubated in an incubator for 96 hours.
Then, 20 μl of MTS ([…], Promega) solution was added to each well of the plate, and the plate was incubated in an incubator for 4 hours to induce discoloration. After 4 hours, the pellets were dissolved by way of a thorough shaking, and the absorbance at 490 nm was determined.

VEGFR2 (KDR) = VEGFR2 (KDR) (Homo sapiens (Human), UniProt P35968); test: VEGFR2 (KDR) enzyme assay, fluorescence polarization; type: biochemical; settings: 5 μM ATP, poly(Glu, Tyr) substrate
VEGFR2 (KDR), sequence (P35968 20-1356): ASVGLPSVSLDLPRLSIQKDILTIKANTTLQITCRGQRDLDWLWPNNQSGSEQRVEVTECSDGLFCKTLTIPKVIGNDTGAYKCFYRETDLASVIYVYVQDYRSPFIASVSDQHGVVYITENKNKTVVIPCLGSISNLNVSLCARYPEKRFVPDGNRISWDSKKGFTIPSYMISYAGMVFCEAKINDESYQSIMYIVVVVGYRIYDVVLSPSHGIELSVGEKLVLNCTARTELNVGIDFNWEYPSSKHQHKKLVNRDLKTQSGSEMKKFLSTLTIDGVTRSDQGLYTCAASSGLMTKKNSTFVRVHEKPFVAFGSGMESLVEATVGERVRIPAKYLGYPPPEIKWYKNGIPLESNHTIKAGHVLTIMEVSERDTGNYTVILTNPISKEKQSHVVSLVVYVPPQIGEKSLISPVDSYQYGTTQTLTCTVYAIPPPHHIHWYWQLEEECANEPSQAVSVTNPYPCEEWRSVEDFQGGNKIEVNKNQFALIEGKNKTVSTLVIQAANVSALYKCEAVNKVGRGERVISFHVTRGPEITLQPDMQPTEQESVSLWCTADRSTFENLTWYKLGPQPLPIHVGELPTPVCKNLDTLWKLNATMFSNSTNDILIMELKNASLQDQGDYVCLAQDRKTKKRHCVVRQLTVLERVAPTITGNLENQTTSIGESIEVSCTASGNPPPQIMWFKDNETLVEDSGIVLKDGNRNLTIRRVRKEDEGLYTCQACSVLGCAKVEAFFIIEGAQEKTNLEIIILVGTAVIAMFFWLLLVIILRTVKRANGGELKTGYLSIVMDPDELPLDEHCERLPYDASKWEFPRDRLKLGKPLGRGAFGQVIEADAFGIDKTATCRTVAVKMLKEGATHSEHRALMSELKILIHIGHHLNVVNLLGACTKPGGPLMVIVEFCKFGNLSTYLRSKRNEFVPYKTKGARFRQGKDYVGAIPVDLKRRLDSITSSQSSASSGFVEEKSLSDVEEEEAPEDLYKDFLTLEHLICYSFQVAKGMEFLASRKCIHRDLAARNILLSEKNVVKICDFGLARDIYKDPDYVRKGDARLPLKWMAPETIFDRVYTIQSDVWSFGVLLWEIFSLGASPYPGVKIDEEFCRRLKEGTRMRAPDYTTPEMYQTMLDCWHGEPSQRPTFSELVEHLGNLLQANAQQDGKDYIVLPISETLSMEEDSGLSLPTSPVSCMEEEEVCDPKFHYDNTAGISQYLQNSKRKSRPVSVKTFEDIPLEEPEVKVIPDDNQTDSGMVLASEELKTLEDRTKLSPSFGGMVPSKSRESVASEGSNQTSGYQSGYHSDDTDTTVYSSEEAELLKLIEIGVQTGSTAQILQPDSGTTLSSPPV
Procedure: VEGFR2 (KDR, Proquinase) enzyme assay (auto-phosphorylation assay) was carried out by using Tyrosine Kinase Assay Kit Green (Panvera). The entire assay was conducted in accordance with VEGFR PTK inhibitor cellular activity test S.O.P.
A typical kinase inhibition reaction requires a protein tyrosine kinase, a suitable buffer solution system, a peptide substrate and ATP. In the present VEGFR tyrosine kinase assay, a buffer solution system containing 20 mM HEPES (pH 7.4), 5 mM MgCl2 and 2 mM MnCl2; 50 μM Na3VO4; 200 ng/10 μl VEGFR (Proquinase); 5 μM ATP; and 10 ng/ml poly(Glu, Tyr) (4:1, Sigma) as a substrate were used.
The compounds of Test Example 1 were used as control compounds at a concentration of 0.0001 to 10 μM. After 10 min, 10 μl of poly(Glu, Tyr) as a substrate was added to each well, and 10 μl of ATP was added thereto to initiate kinase reaction. The plate was incubated at room temperature for 1 hour, and 10 μl of 100 mM EDTA was added to each well to terminate the kinase reaction.
The added EDTA was mixed for 5 min. Thereafter, 10 μl of 10× anti-phosphotyrosine antibody (Panvera), 10 μl of 10×PTK Green Tracer (Panvera) and 30 μl of FP dilution buffer (Panvera) were added thereto, and the plate was incubated in a dark room at room temperature for 30 min.

[2] = tested on: skin cancer cell line, A431; test: Inhibitory effect on growth of cancer cell line A431, SRB; type: cell-based; settings: Homo sapiens, A-431, 72 h, overexpressed EGFR1 (HER-1)
Text: (§1) A skin cancer cell line, A431 (ATCC: CRL-1555), a breast cancer cell line, SK-Br3 (ATCC: HTB-30), and a colon and rectal cancer cell line, SW-620 (ATCC: CCL-227) were used to test the degrees of cancer cell growth inhibition using a culture medium, DEME (Dulbecco's Modified Eagle's Medium, JBI) including 4.5 g/l of glucose and 1.5 g/l of sodium bicarbonate and supplemented with 10% FBS (fetal bovine serum, JBI).
(§2) The cancer cell lines stored in a liquid nitrogen tank were each quickly thawed at 37° C., and centrifuged to remove the medium. The resulting cell pellet was mixed with a culture medium, incubated in a culture flask at 37° C. under 5% CO2 for 2 to 3 days, and the medium was removed. The remaining cells were washed with DPBS (Dulbecco's Phosphate Buffered Saline, JBI) and separated from the flask by using Trypsin-EDTA solution, and the separated cells were diluted with a culture medium to a concentration of 1.0×10^6 cells/ml in case of A431 and SW-620, and 2.0×10^6 cells/ml in case of SK-Br3. 100 μl of the diluted cell solution was added to each well of a 96-well plate, which was incubated at 37° C. under 5% CO2 for 1 day.
(§3) In case that the test compound was not soluble in DMSO, a small amount of 1% HCl was added thereto and treated in a 40° C. water bath for 30 mins until complete dissolution was attained. The test compound solution was diluted with a culture medium to a final concentration of 10 μM, and then diluted 10 times serially to 10^−4. The final concentration of DMSO was less than 1%, and the control compounds of Test Example 1 were used at a concentration of 0.0001 to 10 μM.
(§4) The medium was removed from each well of the 96-well microplate, 100 μl of a diluted test compound solution was added to each well holding cultured cells, and the microplate was incubated at 37° C. under 5% CO2 for 72 hours. After removing the medium from the plate, 50 μl of 10% trichloroacetic acid was added to each well, and the plate was kept at 37° C. for 1 hour to fix the cells to the bottom of the plate. 10% trichloroacetic acid was removed from each well, the plate was dried, 100 μl of an SRB (Sulforhodamine-B, Sigma) dye solution was added thereto, and reacted for 10 mins. The SRB dye solution was prepared by dissolving SRB in 1% acetic acid to a concentration of 0.4%. After removing the dye solution, the plate was washed with water, and dried. When the dye solution was not removed by water, 1% acetic acid was used.
(§5) 150 μl of 10 mM trisma base (Sigma) was added to each well, and the absorbance at 570 nm was determined with a microplate reader (Molecular device).

[3] = tested on: colon and rectal cancer cell line, SW-620; test: Inhibitory effect on growth of cancer cell line SW-620, SRB; type: cell-based; settings: Homo sapiens, 72 h, not having overexpressed EGFR and EGFR2
Text: as §1, §2, §3, §4, §5

[4] = tested on: breast cancer cell line, SK-Br3; test: Inhibitory effect on growth of cancer cell line SK-Br3, SRB; type: cell-based; settings: Homo sapiens, SK-BR-3, 72 h, overexpressed EGFR2 (HER-2)
Text: as §1, §2, §3, §4, §5

EGFR1 (HER-1), sequence (P00533 25-1210): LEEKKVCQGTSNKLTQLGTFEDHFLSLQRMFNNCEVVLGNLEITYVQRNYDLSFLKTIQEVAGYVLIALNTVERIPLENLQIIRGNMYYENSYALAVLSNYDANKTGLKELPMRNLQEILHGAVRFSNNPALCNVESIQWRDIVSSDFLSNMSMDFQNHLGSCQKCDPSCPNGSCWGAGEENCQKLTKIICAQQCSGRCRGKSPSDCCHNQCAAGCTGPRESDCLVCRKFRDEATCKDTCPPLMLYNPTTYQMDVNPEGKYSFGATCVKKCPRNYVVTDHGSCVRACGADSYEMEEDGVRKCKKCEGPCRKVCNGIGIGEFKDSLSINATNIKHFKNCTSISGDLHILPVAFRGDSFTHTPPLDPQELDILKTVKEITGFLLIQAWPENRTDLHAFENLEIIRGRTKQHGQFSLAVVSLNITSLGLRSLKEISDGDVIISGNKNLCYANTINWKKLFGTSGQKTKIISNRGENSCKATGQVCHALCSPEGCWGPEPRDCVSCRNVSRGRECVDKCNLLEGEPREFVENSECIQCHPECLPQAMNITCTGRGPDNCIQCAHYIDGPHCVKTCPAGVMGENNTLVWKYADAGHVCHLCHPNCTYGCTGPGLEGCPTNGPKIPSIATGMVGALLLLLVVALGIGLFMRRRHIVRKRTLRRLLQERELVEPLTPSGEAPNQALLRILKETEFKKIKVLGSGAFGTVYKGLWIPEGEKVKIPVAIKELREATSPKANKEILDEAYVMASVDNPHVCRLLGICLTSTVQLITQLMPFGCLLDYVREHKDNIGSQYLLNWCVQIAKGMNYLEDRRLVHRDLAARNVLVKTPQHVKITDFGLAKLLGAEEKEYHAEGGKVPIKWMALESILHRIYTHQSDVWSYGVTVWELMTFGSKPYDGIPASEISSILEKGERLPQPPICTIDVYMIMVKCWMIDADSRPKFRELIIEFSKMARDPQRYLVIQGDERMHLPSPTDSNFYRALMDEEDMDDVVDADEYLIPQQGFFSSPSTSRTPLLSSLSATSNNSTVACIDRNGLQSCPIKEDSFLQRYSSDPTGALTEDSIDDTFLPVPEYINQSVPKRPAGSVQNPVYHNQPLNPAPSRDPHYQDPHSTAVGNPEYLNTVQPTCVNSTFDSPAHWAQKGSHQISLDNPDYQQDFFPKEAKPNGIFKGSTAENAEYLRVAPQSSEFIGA

Compound	IC50 (EGFR1 (HER-1)) [nM]	IC50 (VEGFR2 (KDR)) [nM]	IC50 [2] [nM]	IC50 [3] [nM]	IC50 [4] [nM]	IC50 [1] [nM]
C=CC(=O)Nc1cc2c(Nc3ccc(Br)cc3F)ncnc2cc1OCC1CCN(C(=O)NCCC)CC1 [Example 9, 4-[6-acryloylamino-4-(4-bromo-2-fluoro-phenylamino)-quinazolin-7-yloxymethyl]-piperidin-1-carboxylic acid propylamide]	36	45	51	2580	266	48
C=CC(=O)Nc1cc2c(Nc3ccc(Br)cc3F)ncnc2cc1OCC1CCN(C(=O)NC(C)(C)C)CC1 [Example 11, 4-[6-acryloylamino-4-(4-bromo-2-fluoro-phenylamino)-quinazolin-7-yloxymethyl]-piperidin-1-carboxylic acid t-butylamide]	14	50	59	5680	456	41
C=CC(=O)Nc1cc2c(Nc3ccc(Br)cc3F)ncnc2cc1OCCCNC(=O)CN(C)C [Example 12, N-{4-(4-bromo-2-fluoro-phenylamino)-7-[3-(2-dimethylamino-acetylamino)-propoxy]-quinazolin-6-yl}-acrylamide]	2	347	17	2500	157	156
C=CC(=O)Nc1cc2c(Nc3ccc(Br)cc3F)ncnc2cc1OCCCNC(=O)C(F)(F)F [Example 14, N-{4-(4-bromo-2-fluoro-phenylamino)-7-[3-(2,2,2-trifluoro-acetylamino)-propoxy]-quinazolin-6-yl}-acrylamide]	59	591	97	10000	57	286
C=CC(=O)Nc1cc2c(Nc3ccc(Br)cc3F)ncnc2cc1OCCCNC(=O)NCC [Example 16, N-{4-(4-bromo-2-fluoro-phenylamino)-7-[3-(3-ethyl-ureido)-propoxy]-quinazolin-6-yl}-acrylamide]	11	208	18	10000	228	102
C=CC(=O)Nc1cc2c(Nc3ccc(Br)cc3F)ncnc2cc1OCCNC(C)=O [Example 18, N-[7-(2-acetylamino-ethoxy)-4-(4-bromo-2-fluoro-phenylamino)-quinazolin-6-yl]-acrylamide]	2	96	15	8070	137	52
C=CC(=O)Nc1cc2c(Nc3ccc(Br)cc3F)ncnc2cc1OCCN(C)C [Example 19, N-[4-(4-bromo-2-fluoro-phenylamino)-7-(2-dimethylamino-ethoxy)-quinazolin-6-yl]-acrylamide]	9	450	39	10000	813	350
C=CC(=O)Nc1cc2c(Nc3ccc(Br)cc3F)ncnc2cc1OCCCCNC(C)=O [Example 20, N-[7-(4-acetylamino-butoxy)-4-(4-bromo-2-fluoro-phenylamino)-quinazolin-6-yl]-acrylamide]	10	545	45	10000	1100	682
C=CC(=O)Nc1cc2c(Nc3ccc(Br)cc3F)ncnc2cc1OCCNC(=O)NCC [Example 23, N-{4-(4-bromo-2-fluoro-phenylamino)-7-[2-(3-ethyl-ureido)-ethoxy]-quinazolin-6-yl}-acrylamide]	2	250	15	8100	38	99

More lines, in order of falling IC50 (EGFR1 (HER-1)), values ahead:

IC50 (EGFR1 (HER-1)) [nM]	IC50 (VEGFR2 (KDR)) [nM]	IC50 [2] [nM]	IC50 [3] [nM]	IC50 [4] [nM]	Compound	IC50 [1] [nM]
68	330	118	9570	734	C=CC(=O)Nc1cc2c(Nc3ccc(Br)cc3F)ncnc2cc1OCCCNC(=O)CS(C)(=O)=O [Example 15, N-{4-(4-bromo-2-fluoro-phenylamino)-7-[3-(2-methanesulfonyl-acetylamino)-propoxy]-quinazolin-6-yl}-acrylamide]	150
8	513	20	7900	36	C=CC(=O)Nc1cc2c(Nc3ccc(Br)cc3F)ncnc2cc1OCCNC(=O)C1CC1 [Example 21, cyclopropane carboxylic acid {2-[6-acrylamino-4-(4-bromo-2-fluoro-phenylamino)-quinazolin-7-yloxy]-ethyl}-amide]	951
6	55	8	2760	330	C=CC(=O)Nc1cc2c(Nc3ccc(Br)cc3F)ncnc2cc1OCC1CCN(C(=O)CN(C)C)CC1 [Example 10, N-{4-(4-bromo-2-fluoro-phenylamino)-7-[1-(2-dimethylamino-acetyl)-piperidin-4-ylmethoxy]-quinazolin-6-yl}-acrylamide]	49
5	523	45	9780	92	C=CC(=O)Nc1cc2c(Nc3ccc(Br)cc3F)ncnc2cc1OCCNC(=O)C(F)F [Example 22, N-{4-(4-bromo-2-fluoro-phenylamino)-7-[2-(2,2-difluoro-acetylamino)-ethoxy]-quinazolin-6-yl}-acrylamide]	961
4	157	28	10000	45	C=CC(=O)Nc1cc2c(Nc3ccc(Br)cc3F)ncnc2cc1OCCCNC(C)=O [Example 13, N-[7-(3-acetylamino-propoxy)-4-(4-bromo-2-fluoro-phenylamino)-quinazolin-6-yl]-acrylamide]	79
3	154	11	2020	64	C=CC(=O)Nc1cc2c(Nc3ccc(Br)cc3F)ncnc2cc1OCCCNC [Example 17, N-[4-(4-bromo-2-fluoro-phenylamino)-7-(3-methylamino-propoxy)-quinazolin-6-yl]-acrylamide]	87
